{"source": "paper PMC9132125", "about": "(Journal of natural products, 2016)", "key": {"[1]": {"test_system": "KCL-22 and T315I KCL-22 CML cell lines", "test": "Biological screening at 1 μM on the two CML cell lines", "assay_type": "cell-based, human"}, "[2]": {"test_system": "T315I mutant KCL-22 CML cells", "test": "MTS cell viability assay, imatinib-resistant T315I mutant KCL-22 CML cells", "assay_type": "cell-based, human", "conditions": "48 h exposure"}, "c-Src": {"target": "c-Src (Homo sapiens, UniProt P12931)", "sequence (P12931 whole entry)": "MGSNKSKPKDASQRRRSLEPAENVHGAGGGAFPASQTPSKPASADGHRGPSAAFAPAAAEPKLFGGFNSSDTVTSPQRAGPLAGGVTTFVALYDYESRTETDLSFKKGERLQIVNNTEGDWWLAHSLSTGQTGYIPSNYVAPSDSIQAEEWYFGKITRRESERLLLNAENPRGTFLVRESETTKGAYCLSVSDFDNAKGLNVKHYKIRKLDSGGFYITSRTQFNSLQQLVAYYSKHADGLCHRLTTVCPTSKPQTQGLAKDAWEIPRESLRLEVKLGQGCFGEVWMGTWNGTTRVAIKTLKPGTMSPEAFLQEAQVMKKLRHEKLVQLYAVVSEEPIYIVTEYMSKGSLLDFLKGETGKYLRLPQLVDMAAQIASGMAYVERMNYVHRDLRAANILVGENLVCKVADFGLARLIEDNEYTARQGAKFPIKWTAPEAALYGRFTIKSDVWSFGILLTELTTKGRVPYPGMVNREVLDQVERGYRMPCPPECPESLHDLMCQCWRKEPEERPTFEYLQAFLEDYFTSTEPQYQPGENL", "test": "Kinase assay in vitro", "assay_type": "biochemical", "conditions": "recombinant protein, 33P-ATP"}, "GSK-3β": {"test_system": "GSK-3β", "conditions": "read-out: GSK-3β IC50; previously published; cited from earlier work"}}}
{"smiles": "O=C1Nc2ccccc2/C1=C1/Nc2ccccc2C1=O", "note": "[compound 1, Indirubin, reference compound]", "values": [{"measurement": "cytotoxic activity in the screening (in words)", "setting": "[1]", "value": "loss of activity"}]}
{"smiles": "O=C1Nc2ccccc2/C1=C1/Nc2ccccc2/C1=N\\O", "note": "[compound 2]", "values": [{"measurement": "cytotoxic activity in the screening (in words)", "setting": "[1]", "value": "loss of activity"}]}
{"smiles": "CN(CCO/N=C1/C(=C2/C(=O)Nc3cc(Br)ccc32)Nc2ccccc21)CC(O)CO", "note": "(stereo not drawn) [compound 17]", "values": [{"measurement": "T315I mutant KCL-22 IC50 range (in words)", "setting": "[2]", "value": "submicromolar range"}, {"measurement": "c-Src IC50 range (in words)", "setting": "c-Src", "value": "picomolar"}, {"measurement": "IC50", "setting": "GSK-3β", "value": 67, "unit": "nM"}]}
{"smiles": "CN(CCO/N=C1/C(=C2/C(=O)Nc3cc(Br)ccc32)Nc2ccccc21)CC(O)CO.Cl", "note": "(stereo not drawn) [compound 18]", "values": [{"measurement": "T315I mutant KCL-22 IC50 range (in words)", "setting": "[2]", "value": "submicromolar range"}, {"measurement": "c-Src IC50 range (in words)", "setting": "c-Src", "value": "picomolar"}, {"measurement": "IC50", "setting": "GSK-3β", "value": 23, "unit": "nM"}]}
{"smiles": "O=C1Nc2cc(Br)ccc2/C1=C1/Nc2ccccc2/C1=N\\OCCN1CCCC1", "note": "[compound 19]", "values": [{"measurement": "T315I mutant KCL-22 IC50 range (in words)", "setting": "[2]", "value": "submicromolar range"}, {"measurement": "c-Src IC50 range (in words)", "setting": "c-Src", "value": "nanomolar"}, {"measurement": "IC50", "setting": "GSK-3β", "value": 26, "unit": "nM"}]}
{"smiles": "Cl.O=C1Nc2cc(Br)ccc2/C1=C1/Nc2ccccc2/C1=N\\OCCN1CCCC1", "note": "[compound 20]", "values": [{"measurement": "T315I mutant KCL-22 IC50 range (in words)", "setting": "[2]", "value": "submicromolar range"}, {"measurement": "c-Src IC50 range (in words)", "setting": "c-Src", "value": "nanomolar"}, {"measurement": "IC50", "setting": "GSK-3β", "value": 54, "unit": "nM"}]}
{"smiles": "Cl.Cl.O=C1Nc2cc(Br)ccc2/C1=C1/Nc2ccccc2/C1=N\\OCCN1CCNCC1", "note": "[compound 22]", "values": [{"measurement": "T315I mutant KCL-22 IC50 range (in words)", "setting": "[2]", "value": "submicromolar range"}, {"measurement": "c-Src IC50 range (in words)", "setting": "c-Src", "value": "picomolar"}]}
{"smiles": "COCCN1CCN(CCO/N=C2/C(=C3/C(=O)Nc4cc(Br)ccc43)Nc3ccccc32)CC1", "note": "[compound 27]", "values": [{"measurement": "T315I mutant KCL-22 IC50 range (in words)", "setting": "[2]", "value": "submicromolar range"}, {"measurement": "c-Src IC50 range (in words)", "setting": "c-Src", "value": "nanomolar"}, {"measurement": "IC50", "setting": "GSK-3β", "value": 110, "unit": "nM"}]}
{"smiles": "COCCN1CCN(CCO/N=C2/C(=C3/C(=O)Nc4cc(Br)ccc43)Nc3ccccc32)CC1.Cl.Cl", "note": "[compound 28]", "values": [{"measurement": "T315I mutant KCL-22 IC50 range (in words)", "setting": "[2]", "value": "submicromolar range"}, {"measurement": "c-Src IC50 range (in words)", "setting": "c-Src", "value": "nanomolar"}, {"measurement": "IC50", "setting": "GSK-3β", "value": 200, "unit": "nM"}]}
{"smiles": "O=C1Nc2cc(Br)ccc2/C1=C1/Nc2ccccc2/C1=N\\OCCN1CCN(CCOCCO)CC1", "note": "[compound 29]", "values": [{"measurement": "c-Src IC50 range (in words)", "setting": "c-Src", "value": "picomolar"}, {"measurement": "IC50", "setting": "GSK-3β", "value": 14, "unit": "nM"}]}
{"smiles": "Cl.Cl.O=C1Nc2cc(Br)ccc2/C1=C1/Nc2ccccc2/C1=N\\OCCN1CCN(CCOCCO)CC1", "note": "[compound 30]", "values": [{"measurement": "T315I mutant KCL-22 IC50 range (in words)", "setting": "[2]", "value": "submicromolar range"}]}
{"smiles": "O=C1Nc2ccccc2/C1=C1/Nc2cc(Br)ccc2C1=O", "note": "[compound 57]", "values": [{"measurement": "cytotoxic activity in the screening (in words)", "setting": "[1]", "value": "inactive"}]}
{"smiles": "O=C1Nc2ccccc2/C1=C1/Nc2cc(Br)ccc2/C1=N\\O", "note": "[compound 58]", "values": [{"measurement": "cytotoxic activity in the screening (in words)", "setting": "[1]", "value": "inactive"}]}
